# Reference: US6831101B2, “Tricyclic rantes receptor ligands” (Chemokine Therapeutics Corporation, priority 2001, dated 2004)
# Tests used:
# [1] = system: CCR-1, -3, -4, and -5 receptors on THP-1 cells; test: Competitive inhibition of 125I-RANTES binding to THP-1 cells; conditions: for % Inhibition (4 ug/ml) of 125I-RANTES binding: 4 ug/ml compound
# Method: The binding studies were conducted using I^125 labeled RANTES as competitor and THP-1 cell lines.
# [2] = system: murine Experimental Allergic Encephalomyelitis (EAE); test: EAE mouse model of multiple sclerosis, clinical severity grading; assay type: in vivo; conditions: 5, 20 and 40 mg/kg/day for 19 days, SJL/J mice, compared to control, FIG. 3
# Description: Experimental autoimmune encephalomyelitis (EAE) is a CD4^+ Th1-mediated inflammatory demyelinating disease of the central nervous system (CNS) that serves as a model for multiple sclerosis and other autoimmune diseases. It has previously been disclosed that RANTES regulates acute and relapsing autoimmune encephalomyelitis, and that RANTES production in the central nervous system is correlated with relapsing EAE development. In this example, the EAE mouse model (SJL/J mice) for MS is used, in which the disease is induced with Bordetella pertussis toxin (Claude C. A. et. al., (1975) Journal of Immunology 114(5): 1537-1540 and Hosseimi, H. et. al., (2000) Neurology 54 (7): A 166, An abstract presented in April 2000 on “Inhibition of proteosome prevents clinical signs in an experimental model of Multiple Sclerosis”).
# Data for FIG. 3 was collected in an experiment involving five groups of 10 mice each, as follows: group I, normal control (no drug, no disease); group II, EAE control (MBP but no drug); group III, drug at 5 mg/kg body weight; group IV, drug at 20 mg/kg body weight; group V, drug at 40 mg/kg body weight. Three different concentrations of neoabietic acid were given to animals for 19 days: 5, 20, and 40 mg/kg/day in a volume of 100 ul Cremophore EL (Sigma). […]
# [3] = system: RANTES-induced [Ca2+]i mobilization in THP-1 cells; test: Inhibition of RANTES-induced [Ca2+]i mobilization in THP-1 cells; assay type: cell-based
# Method: A rapid, transient rise in the free cytosolic Ca^2+ concentration ([Ca^2+]i) is one of the events in neutrophil activation and is assumed to be involved in many of the subsequent cellular reactions. Both Ca^2+ release from intracellular stores and Ca^2+ influx from the extracellular space contribute to the rise in [Ca^2+]i. […] Fura-2,AM loaded THP-1 cells were incubated with CTCM189 for 60 min prior to induction of [Ca^2+]i mobilization by 10 nM RANTES.
Structure (SMILES),% Inhibition (4 ug/ml) of 125I-RANTES binding [1] [%],Effect on clinical scores in EAE [2],"IC50 ([1]; I125 labeled RANTES, THP-1 cells, data of FIG. 1, read-out: IC50, inhibition of binding of RANTES to THP-1 cells expressing CCR-1, -3, -4, and -5) [µM]","IC50 ([3]; Homo sapiens, Fura-2,AM loaded THP-1 cells, 60 min preincubation, 10 nM RANTES) [µM]","Inhibition of RANTES-induced [Ca2+]i mobilization at 5 uM ([3]; THP-1 cells, 5 uM compound)"
"C=C[C@@]1(C)C=C2CC[C@@H]3[C@](C)(CCC[C@@]3(C)C(=O)O)[C@H]2CC1.N [C, Ammonium Pimarate]",48,–,–,–,–
"CC(C)=C1C=C2CC[C@@H]3[C@](C)(CCC[C@@]3(C)C(=O)O)[C@H]2CC1 [Compound 1, 8(14), 13(15)-abietadien-18-oic-acid]",68,beneficial effect on the clinical scores,0.253,0.0272,almost complete inhibition
"C=C[C@]1(C)C=C2CC[C@@H]3[C@](C)(CCC[C@@]3(C)C(=O)O)[C@H]2CC1 [B, Sandaraco-pimaric acid]",36,–,–,–,–
